Earlier results on one compound are cited in patent publication US11260055B2, “Oral pharmaceutical composition of lurasidone and preparation thereof” (PIRAMAL PHARMA LIMITED, priority 2017, dated 2022).

For the series the following is noted: in water.

For `O=C1[C@@H]2[C@H]3CC[C@H](C3)[C@@H]2C(=O)N1C[C@@H]1CCCC[C@H]1CN1CCN(c2nsc3ccccc23)CC1` [Lurasidone], the Solubility result is listed as “poor water solubility”.
